In US5521155A, “Amides of teicoplanin compounds” (Gruppo Lepetit S.p.A, priority 1985, dated 1996):
Values after ≈ are worked out from the molar mass of the structure shown.

What was measured:
[1] = Acid-base titration (pK); type: physicochemical; settings: acid-base titration in METHYLCELLOSOLVE/H2O 4:1 (v/v), 0.01N KOH; salt form per Table IV
Procedure: The following table (Table IV) reports the acid-base titration data of some representative compounds of the invention. The assays were carried out in METHYLCELLOSOLVE/H2 O, 4:1(v/v). A sample is dissolved in METHYLCELLOSOLVE/H2 O, 4:1(v/v) (10 umole in about 20 ml) and then 0.01N HCl (2 ml) is added and the mixture is titrated with 0.01N KOH in the same solvent mixture.

[2] = tested on: S. aureus Tour; experiment: In vitro antibacterial activity, standard agar-dilution test (MIC); type: cell-based; settings: inoculum about 10^4 CFU/ml, 18-24 h at 37° C.
Method in brief: (§1)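 Agar-dilution MIC with a final inoculum of about 10^4 CFU/ml, prepared from broth cultures.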

[3] = tested on: S. aureus ATCC 6538; experiment: as above; type: cell-based; settings: inoculum about 10^4 CFU/ml, 18-24 h at 37° C.
Method in brief: as §1

[4] = tested on: S. epidermidis ATCC 12228; experiment: as above; type: cell-based; settings: inoculum about 10^4 CFU/ml, 18-24 h at 37° C.
Method in brief: as §1

[5] = tested on: Proteus vulgaris X 19H ATCC 881; experiment: as above; type: cell-based; settings: inoculum about 10^4 CFU/ml, 18-24 h at 37° C.
Method in brief: as §1

[6] = tested on: S. pneumoniae UC 41; experiment: as above; type: cell-based; settings: inoculum about 10^4 CFU/ml, 18-24 h at 37° C.
Method in brief: as §1

[7] = tested on: S. faecalis ATCC 7080; experiment: as above; type: cell-based; settings: inoculum about 10^4 CFU/ml, 18-24 h at 37° C.
Method in brief: (§2)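 Staphylococci grown in Iso-Sensitest broth, streptococci in Todd-Hewitt-type broth. Broth cultures were diluted to a final inoculum of about 10^4 CFU/ml. MIC read by agar dilution.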

[8] = tested on: E. coli SKF 12140; experiment: as above; type: cell-based; settings: inoculum about 10^4 CFU/ml, 18-24 h at 37° C.
Method in brief: as §1

[9] = tested on: Pseudomonas aeruginosa ATCC 10145; experiment: as above; type: cell-based; settings: inoculum about 10^4 CFU/ml, 18-24 h at 37° C.
Method in brief: as §1

[10] = tested on: S. pyogenes C 203; experiment: as above; type: cell-based; settings: inoculum about 10^4 CFU/ml, 18-24 h at 37° C.
Method in brief: as §2

[11] = Isoelectric point (pI) by isoelectrofocusing with bioautography detection; type: physicochemical; settings: IEF technique, polyacrylamide gel
Description: The isoelectrofocusing (IEF) technique coupled with bioautography detection has been used for the determination of the pI of representative compounds of the invention using the following materials: AMPHOLINE carrier ampholytes (40% w/v) were purchased from LKB Produketer AB, Bromma, Sweden. Acrylamide, N,N'-methylenbisacrylamide (BIS), N,N,N',N'-tetramethylethylenediamine (TEMED) and ammonium persulfate were from Bio Rad Laboratorie, Richmond, Calif., USA. Glycerol and Antibiotic agar N. 1 (Grove and Randall medium N. 1) were from E. Merck Darmstadt FRG. GEL FIX polyester sheets were purchased from Serva Feinbiochemica Heidelberg. Phenolindo (2,6-dichlorophenol) came from BDH Chemicals Ltd. Poole, England.
IEF was made on gel slab using a LKB MULITPHOR 2117 cell and a Bio-Rad Power Supply Model 1420A. Slabs of 24.5×11.5 cm and 1 mm thickness were prepared on a sheet of GEL FIX. Polyacrylamide gels with a concentration of 8% T and with a cross-linkage of 4% C (30% T stock solution was prepared by dissolving 28.8 g of acrylamide and 1.2 g of bis-acrylamide in 100 ml distilled water), glycerol, 3.5% v/v, 2% AMPHOLINE, 0.05% ammonium persulphate as catalyst and 0.05% TEMED as accelerator. The carrier ampholite composition for 35 ml gelling solution was as follows:
The electrode solutions, as recommended by LKB for the respective pH range, were:
The gel was cooled to 4° C. with the aid of a LKB 2209 refrigerated constant temperature circulator. After prefocusing for 30 min. at 5 W, the samples (20 μl containing 0.2 to 2.5 μg of antibiotic) were loaded into the slot at the cathodic side. Electrofocusing was performed using 10 W constant power and was completed after 3-31/2 hours with a final potential of 1400 V.
The pH values were determined by dividing a portion of the gel into 1 cm sections, and eluting the individual pieces at room temperature with 1 ml of 10 mM KCl prior to pH readings.
The isoelectric point of each antibiotic was determined by interpolation on a curve obtained by plotting pH values versus the distance from the anode.
Polyacrylamide gel was placed on a 3 mm layer of agar medium N. 1 inoculated with 1% of Bacillus subtilis ATCC 6633 spore (0.5 OD at 600 nm). After 10 min the gel was removed and the plate was incubated overnight at 37° C. and examined for inhibition zones. The contrast between the area of lysis and that of bacterial growth was enhanced by use of Phenolindo(2,6-dichlorophenol) 1% w/v (oxidation-reduction indicator).

[12] = tested on: S. pyogenes L 49; experiment: In vivo test in mice experimentally infected with S. pyogenes L 49 (ED50); settings: mice infected with S. pyogenes L 49; for ED50, route of administration os.: oral

| pK1 [1] | pK2 [1] | MIC S. aureus Tour [2] [µg/mL] | MIC S. aureus ATCC 6538 [3] [µg/mL] | MIC S. epidermidis ATCC 12228 [4] [µg/mL] | MIC Proteus vulgaris X 19H ATCC 881 [5] [µg/mL] | MIC S. pneumoniae UC 41 [6] [µg/mL] | MIC S. faecalis ATCC 7080 [7] [µg/mL] | MIC E. coli SKF 12140 [8] [µg/mL] | MIC Pseudomonas aeruginosa ATCC 10145 [9] [µg/mL] | MIC S. pyogenes C 203 [10] [µg/mL] | Isoelectric point (pI) [11] | SMILES | ED50, route of administration os. [12] [mg/kg] | ED50, route of administration s.c [12] [mg/kg] |
| --- | --- | --- | --- | --- | --- | --- | --- | --- | --- | --- | --- | --- | --- | --- |
| 5.01 | 6.8 | 0.12 (≈ 0.0915 µM) | 0.06 (≈ 0.0458 µM) | 0.016 (≈ 0.0122 µM) | 128 (≈ 97.6 µM) | 0.12 (≈ 0.0915 µM) | 0.12 (≈ 0.0915 µM) | 16 (≈ 12.2 µM) | 64 (≈ 48.8 µM) | 0.12 (≈ 0.0915 µM) | 7.9 | NC1C(=O)NC2Cc3ccc(c(Cl)c3)Oc3cc4cc(c3O)Oc3ccc(cc3Cl)C(O)C3NC(=O)C(NC(=O)C4NC(=O)C(NC2=O)c2cc(O)cc(c2)Oc2cc1ccc2O)c1ccc(O)c(c1)-c1c(O)cc(O)cc1C(C(=O)NCCN1CCOCC1)NC3=O (centres unmarked) [Compound 21] | > 300 | 2.2 |
| 5.6 | 6.8 | 0.12 (≈ 0.0937 µM) | 0.06 (≈ 0.0468 µM) | 0.032 (≈ 0.025 µM) | 64 (≈ 50 µM) | 0.12 (≈ 0.0937 µM) | 0.12 (≈ 0.0937 µM) | 16 (≈ 12.5 µM) | 32 (≈ 25 µM) | 0.12 (≈ 0.0937 µM) | 8.0 | CN1CCN(C(=O)C2NC(=O)C3NC(=O)C(NC(=O)C4NC(=O)C5NC(=O)C(Cc6ccc(c(Cl)c6)Oc6cc4cc(c6O)Oc4ccc(cc4Cl)C3O)NC(=O)C(N)c3ccc(O)c(c3)Oc3cc(O)cc5c3)c3ccc(O)c(c3)-c3c(O)cc(O)cc32)CC1 (centres unmarked) [Compound 23] | > 300 | 0.95 |
| 6.6 | – | 0.12 (≈ 0.0946 µM) | 0.12 (≈ 0.0946 µM) | 0.016 (≈ 0.0126 µM) | 64 (≈ 50.5 µM) | 0.12 (≈ 0.0946 µM) | 0.12 (≈ 0.0946 µM) | 16 (≈ 12.6 µM) | 64 (≈ 50.5 µM) | 0.12 (≈ 0.0946 µM) | 7.8 | NC1C(=O)NC2Cc3ccc(c(Cl)c3)Oc3cc4cc(c3O)Oc3ccc(cc3Cl)C(O)C3NC(=O)C(NC(=O)C4NC(=O)C(NC2=O)c2cc(O)cc(c2)Oc2cc1ccc2O)c1ccc(O)c(c1)-c1c(O)cc(O)cc1C(C(=O)N1CCOCC1)NC3=O (centres unmarked) [Compound 25] | > 300 | 1.02 |
